Data: patent US20020084230A1, “Methods for screening drugs to predict tardive dyskinesia” (priority 1997, published 2002)

What was measured:
[1] = Hydrogen peroxide production assay (TCEP/DTNB, 96-well) in presence of Cu(II); conditions: for effect of chelating agent on hydrogen peroxide production by Vitamin C and antipsychotics: FIG. 7
Experimental: To determine whether antipsychotics themselves could be the source of peroxidation in TD, we measured hydrogen peroxide formation in vitro using a novel 96-well assay developed specifically for that purpose. The production of hydrogen peroxide is assayed by a modification of a published method (Han, J. C. and Han, G. Y., Anal. Biochem. 220:5-10 (1994); Han, J., et al., Anal. Biochem. 234:107-109 (1996)). […] Antipsychotics (10 μM) were assayed for hydrogen peroxide formation in PBS (pH 7.4) in the presence of 10 μM Cu(II).
Ten μM of antipsychotics and 10 μM of Cu(II) were co-incubated with 100 μM of a H2O2-trapping reagent, Tris(2-Carboxyethyl)-Phosphine Hydrochloride (TCEP), in PBS (pH 7.4) at 37° C. for 1 hour.

rats = assay: Rodent model of vacuous chewing (TD model); format: in vivo, rat; conditions: 24 weeks treatment, 12 weeks withdrawal, FIG. 12
Experimental: There are two major animal models of TD. The first is a primate model of antipsychotic-induced dyskinesia. Ten to thirty percents of Cebus or Maccaca monkeys will develop clinical dyskinesia after long-term antipsychotic treatment. The second is a rodent model of vacuous chewing. In the rodent model, when the animals are treated with antipsychotics, they develop vacuous chewing, whic phenomenological similarities to the orobuccofacial movement of TD. Only 30-60% of rats will develop vacuous chewing. The chewing movement is enhanced after the withdrawal of antipsychotic treatment. […] (FIG. 12.)

SOD and catalase = conditions: rats, chronic treatment; cited from earlier work
tardive dyskinesia = conditions: patients with TD; cited from earlier work

With `Cc1cc(-c2ccc(S(=O)(=O)O)cc2)c2ccc3c(-c4ccc(S(=O)(=O)O)cc4)cc(C)nc3c2n1` [bathocuproine disulfonate (BC), bathocuproine disulfonate] the “effect of chelating agent on hydrogen peroxide production by Vitamin C and antipsychotics” value [1] was “significantly attenuate the production of hydrogen peroxide”.

In the case of `CN1CCN(C2=Nc3cc(Cl)ccc3Nc3ccccc32)CC1` [clozapine], the “induction of vacuous chewing” value (rats) is reported as “only induce vacuous chewing in a small portion of the animals”.

In the case of `OCCN1CCN(CCCN2c3ccccc3Sc3ccc(C(F)(F)F)cc32)CC1` [fluphenazine], the “SOD and catalase activities in the nervous system” value (SOD and catalase) is listed as “cause a decrease in SOD and catalase activities”, the “dependence of hydrogen peroxide generation on copper concentration” value ([1]; FIG. 6) is listed as “dependent on the concentration of copper” and the “dependence of hydrogen peroxide generation on drug concentration” value ([1]; dose response, FIG. 5) is listed as “concentration dependent”.

With `NCCNCCNCCN` [triethylenetetramine (TETA), triethylenetetramine] the “effect of chelating agent on hydrogen peroxide production by Vitamin C and antipsychotics” value [1] was “significantly attenuate the production of hydrogen peroxide”.

For Vitamin E, the “effect on symptoms of TD” value (tardive dyskinesia) is listed as “reverses the symptoms of TD”.
